Patent US9233984B2, “Compound, method for producing compound, and method for purifying compound” (Nippon Soda Co., Ltd., priority 2012, dated 2016)
“And” between values parts separate entries of the source, which are not always exact repeats. Equal values may be shown once.

Assay: Isomerization reaction rate under irradiation with light (365 nm, high-pressure mercury lamp) of 1% by weight aqueous solutions
Type: physicochemical
Details: 1% by weight aqueous solution
Procedure: The reaction rates of the isomerization reaction were compared for the TZOX and TZOX-Na salt synthesized in Example 1. More specifically, 1% by weight aqueous solutions of each were prepared followed by irradiating these aqueous solutions with light (wavelength: 365 nm) for 3 hours using a high-pressure mercury lamp. A portion of the aqueous solutions were sampled prior to the start of irradiation with light (irradiation time: 0 hours) and at 1, 2 and 3 hours after the start of irradiation with light followed by an investigation of the abundance ratios of the (E) form and (Z) form. Although the abundance ratio of the (Z) form in the case of TZOX-Na prior to irradiation with light was only 0.33%, it increased to 34% after 1 hour had elapsed since the start of irradiation and remained essentially unchanged after that point. In other words, it was determined that the TZOX-Na salt reaches equilibrium as a result of being irradiated with light for 1 hour, and that the isomerization rate thereof is extremely fast. In contrast, in the case of TZOX, the abundance ratio of the (Z) form only finally reached 35% after 3 hours had elapsed since the start of irradiation, and it was determined that at least 2 hours are required to reach equilibrium.

[1] = irradiation time 0 hours (prior to irradiation)

Row | SMILES | Irradiation time required to reach equilibrium of (E)/(Z) isomerization | Abundance Ratio (%) (E) form [1] | Abundance Ratio (%) (Z) form [1] | Abundance Ratio (%) (E) form (irradiation time 1 hour) | Abundance Ratio (%) (Z) form (irradiation time 1 hour) | Abundance Ratio (%) (E) form (irradiation time 2 hours) | Abundance Ratio (%) (Z) form (irradiation time 2 hours) | Abundance Ratio (%) (E) form (irradiation time 3 hours) | Abundance Ratio (%) (Z) form (irradiation time 3 hours)
1 | Cn1nnnc1C(=NO)c1ccccc1 [TZOX, (1-methyl-1H-tetrazol-5-yl)(phenyl)methanoneoxime] | at least 2 hour | 99.52% | 0.45% | 83.99% | 13.7% | 70.39% | 28.13% | 62.8% | 35% and 35.3%
2 | Cn1nnnc1C(=N[O-])c1ccccc1.[Na+] [TZOX-Na] | 1 h | 99.43% | 0.33% | 64.0% | 34% | 63.0% | 33.9% | 66.6% | 32.3%
